Data from article PMC11207149, “Novel hematopoietic progenitor kinase 1 inhibitor KHK-6 enhances T-cell activation” (PLOS ONE, 2024).

Target: T1, hematopoietic progenitor kinase 1 (HPK1) (Homo sapiens, UniProt Q92918)
T1 construct: gene MAP4K1
Test: radiometric [γ-33P]-ATP kinase assay (Eurofins KinaseProfiler), recombinant human HPK1, MBP substrate
Format: biochemical

T1 sequence (Q92918 whole entry): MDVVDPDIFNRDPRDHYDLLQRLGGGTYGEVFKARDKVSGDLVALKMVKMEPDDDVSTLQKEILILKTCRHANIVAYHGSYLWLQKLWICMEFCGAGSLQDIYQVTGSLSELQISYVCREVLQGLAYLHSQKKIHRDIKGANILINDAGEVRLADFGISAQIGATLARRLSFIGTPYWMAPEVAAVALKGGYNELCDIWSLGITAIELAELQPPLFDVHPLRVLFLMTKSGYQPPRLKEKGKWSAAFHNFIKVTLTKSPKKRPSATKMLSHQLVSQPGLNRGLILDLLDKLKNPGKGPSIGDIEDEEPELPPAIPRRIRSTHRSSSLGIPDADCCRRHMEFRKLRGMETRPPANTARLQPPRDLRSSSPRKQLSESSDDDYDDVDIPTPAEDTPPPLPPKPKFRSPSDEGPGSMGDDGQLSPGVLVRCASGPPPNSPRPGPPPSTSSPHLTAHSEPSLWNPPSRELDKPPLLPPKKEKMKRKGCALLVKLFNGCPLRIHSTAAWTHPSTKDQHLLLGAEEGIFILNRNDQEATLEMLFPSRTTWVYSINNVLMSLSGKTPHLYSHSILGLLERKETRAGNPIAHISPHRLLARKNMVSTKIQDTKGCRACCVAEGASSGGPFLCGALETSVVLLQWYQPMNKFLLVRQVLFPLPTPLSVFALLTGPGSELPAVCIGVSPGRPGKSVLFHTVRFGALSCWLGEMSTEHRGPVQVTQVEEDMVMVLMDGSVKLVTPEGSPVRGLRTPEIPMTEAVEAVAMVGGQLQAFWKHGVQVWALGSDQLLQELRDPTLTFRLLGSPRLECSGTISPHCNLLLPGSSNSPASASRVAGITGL

IC50: 20 nM
SMILES: CC(C)S(=O)(=O)c1ccccc1Nc1nc(Nc2ccc3c(c2)C(C)(C)OC3=O)ncc1Cl [KHK-6]
